Experimental data as given in patent publication US9861613B2, “GPR142 agonist compounds” (Eli Lilly and Company, priority 2014, dated 2018).

What was measured:
human GPR142 = target: T1, human GPR142 (Homo sapiens, UniProt Q7Z601); assay: GPR142 agonist effect as measured by IP-1 assay (HTRF), human GPR142; assay type: cell-based; conditions: HEK293 cells expressing human GPR142, IP-1, Mean±SEM, n=9
T1 construct: expressed in transfected cells; host or cells: HEK293 (G418-selected)
T1 sequence (Q7Z601 1-462): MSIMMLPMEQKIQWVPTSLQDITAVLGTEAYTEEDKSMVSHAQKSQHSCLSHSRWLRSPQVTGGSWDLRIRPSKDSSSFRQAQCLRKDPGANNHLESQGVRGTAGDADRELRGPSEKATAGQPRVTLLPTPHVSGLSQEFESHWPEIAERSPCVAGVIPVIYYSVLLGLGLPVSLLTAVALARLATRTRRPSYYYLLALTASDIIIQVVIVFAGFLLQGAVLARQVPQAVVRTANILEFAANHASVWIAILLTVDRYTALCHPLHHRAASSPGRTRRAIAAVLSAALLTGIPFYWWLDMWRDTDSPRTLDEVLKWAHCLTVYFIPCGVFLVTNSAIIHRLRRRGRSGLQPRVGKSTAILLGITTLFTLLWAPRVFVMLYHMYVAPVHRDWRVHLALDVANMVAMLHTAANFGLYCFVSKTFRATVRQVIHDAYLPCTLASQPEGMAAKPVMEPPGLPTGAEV
Protocol: (§1) The purpose of this assay is to detect GPR142 agonist effect.
(§2) HEK293 cells expressing human GPR142 or mouse GPR142 are maintained in Dulbecco's modified Eagle's medium supplemented with 10% FBS and 800 μg/ml G418 (Geneticin®) at 37° C. and 5% CO2. The cells are plated in 384 well plates at 5000 cells per well and allowed 18 hours for attachment. After addition of compounds at varying concentrations ranging from 30 μM to 1 nM, cells are incubated for 1 hour. IP-1 measurements are performed using an IP-One HTRF® assay kit (Cisbio) according to manufacturer's protocol using assay buffer containing 1×HBSS (+Ca, +Mg), 0.1% BSA, 50 mM LiCl and 20 mM HEPES, pH 7.2. The reaction is stopped by addition of IP1-d2 (IP-1 coupled to an organic HTRF acceptor) followed by cryptate solution (http://www.htrf.com/usa/htrf-chemistry) and the plates are incubated at 25° C. for 1 hour. Fluorescence is read in an Envision instrument at 665 nm and 620 nm wavelength. The ratio of 665 nm/620 nm is calculated and converted to IP-1 levels using an IP-1 standard curve. The data is fit to a 4 parameter-fit logistics to determine EC50 values.

GPR142 = target: T2, GPR142 (Mus musculus, UniProt Q7TQN9); assay: Intraperitoneal glucose tolerance test (IPGTT); assay type: in vivo; conditions: lean C57BL/6 mice, oral dosing 30 min before glucose challenge
T2 construct: from tissue; host or cells: whole animal, male C57BL/6 mice
T2 sequence (Q7TQN9 1-365): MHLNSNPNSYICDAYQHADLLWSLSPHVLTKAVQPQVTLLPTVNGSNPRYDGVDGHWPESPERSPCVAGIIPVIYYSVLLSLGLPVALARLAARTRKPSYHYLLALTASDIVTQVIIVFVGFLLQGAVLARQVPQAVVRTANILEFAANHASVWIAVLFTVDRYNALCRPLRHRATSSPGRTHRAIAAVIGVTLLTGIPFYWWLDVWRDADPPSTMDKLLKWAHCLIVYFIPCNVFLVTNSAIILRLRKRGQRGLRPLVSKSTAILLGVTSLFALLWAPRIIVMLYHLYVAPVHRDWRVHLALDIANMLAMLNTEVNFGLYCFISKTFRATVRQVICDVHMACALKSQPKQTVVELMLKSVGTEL
Protocol: IPGTT assay is used to examine the ability of exemplified compounds to activate GPR142 in vivo resulting in anti-diabetic efficacy, i.e. reduction in plasma glucose levels. Male C57BL/6 mice (8-10 weeks of age) are fed normal rodent chow diet and water ad libitum. On the night before the study, animals are fasted overnight in clean cages. On the morning of the study, animals are dosed orally with vehicle or compound at the indicated doses 30 minutes prior to the glucose challenge (2 g/kg) by intraperitoneal injection. Blood glucose levels are determined from tail bleeds taken immediately prior to compound dosing (−30 min) and 0, 15, 30, and 60 min after glucose challenge using handheld glucometers. Plasma is isolated from tail bleeds taken at 7 minutes after glucose challenge and used to determine insulin levels by the Rat/Mouse Insulin Elisa kit (Millipore) or MA6000 Mouse/Rat Insulin Kit (MSD). The blood glucose profile from t=0 to t=60 min is used to calculate an area under the curve (AUC) for each treatment. Percent lowering in glucose AUC is calculated for each treatment group with respect to the AUC of vehicle group. Compounds with a reduction in glucose AUC (P<0.05) is considered positive in the assay.

mouse GPR142 = target: T3, mouse GPR142 (Mus musculus, UniProt Q7TQN9); assay: GPR142 agonist effect as measured by IP-1 assay (HTRF), mouse GPR142; assay type: cell-based; conditions: HEK293 cells expressing mouse GPR142, IP-1; Mean±SEM, n=5; read-out: EC50 against mouse GPR142 receptor
T3 construct: expressed in transfected cells; host or cells: HEK293 (G418-selected)
T3 sequence (Q7TQN9 1-365): T2 sequence (Q7TQN9 1-365)
Protocol: as §1, §2

efficacy against human GPR142 receptor (human GPR142): 105% | EC50 (human GPR142; read-out: EC50 against human GPR142 receptor): 52.6 nM | EC50 (mouse GPR142): 5.46 nM
SMILES: Cc1ncn(C)c1NC(=O)[C@@H]1CCC[C@H](N(C)C(=O)c2cccc(C(F)(F)F)c2)C1 (single isomer, unassigned; isomer 1) [Example 1, Cis-(chiral)-N-[3-[(3,5-Dimethylimidazol-4-yl)carbamoyl]cyclohexyl]-N-methyl-3-(trifluoromethyl)benzamide, isomer 1]
ED50 in IPGTT (GPR142): 4.2 mpk
